Measured values reported in patent US8933099B2, “Monocyclic pyridine derivative” (Eisai R&D Management Co., Ltd., priority 2013, dated 2015).
Read-outs that look alike come from different tables or passages of the source.

Assays:
[1] = test system: normal human umbilical vein endothelial cells (HUVEC); assay: HUVEC growth inhibition assay (VEGF-induced); format: cell-based; conditions: Homo sapiens, HUVEC, 72 h, read-out: HUVEC (IC50 (nM)), growth in the presence of VEGF 10 ng/mL, 3 days
Experimental: The absorbance value was measured with ENVISION™ (PerkinElmer Co., Ltd.) at 450 nm. The absorbance values of the wells without adding the test substance but with VEGF addition was defined as 100% and the absorbance values of the wells with neither the test substance nor VEGF addition was defined as 0%.

[2] = test system: human stomach cancer cell line SNU-16 (FGFR2 gene amplification); assay: SNU-16 growth inhibition assay; format: cell-based; conditions: Homo sapiens, SNU-16, 72 h
Experimental: In this assay, the growth inhibitory activity of a test substance in a human stomach cancer cell line harboring FGFR2 gene amplification is measured.
Then, 10 μL of Cell Counting Kit-8 (Dojindo Laboratories, CK04) was added to each well, and the resultant was incubated for 1 to 2 hours in a 5% CO2 incubator (37° C.) to cause a color reaction. The absorbance value was measured with ENVISION™ (PerkinElmer Co., Ltd.) at 450 nm.

[3] = read-out: SNU-16 (IC50 (nM)), cell growth, 3 days, Cell Counting Kit-8

| SMILES | IC50 [1] [nM] | IC50 [2, 3] [nM] | IC50 ([2]; read-out: SNU-16 (IC50 (nM))) [nM] |
| --- | --- | --- | --- |
| CNC(=O)n1ccc2cc(Oc3ccnc(NC(=O)c4ccc(C5CCN(CCCF)CC5)cc4)c3)c(OC)cc21 [Example 5, 5-((2-(4-(1-(3-Fluoropropyl)piperidin-4-yl)benzamide)pyridin-4-yl)oxy)-6-methoxy-N-methyl-1H-indole-1-carboxamide] | 387 | 13.4 |  |
| CNC(=O)n1ccc2cc(Oc3ccnc(NC(=O)c4ccc(C5CCNCC5F)cc4)c3)c(OC)cc21 (stereo not shown) [Example 6, 5-((2-(4-(3-Fluoropiperidin-4-yl)benzamide)pyridin-4-yl)oxy)-6-methoxy-N-methyl-1H-indole-1-carboxamide] | 180 | 9.1 |  |
| CNC(=O)n1ccc2cc(Oc3ccnc(NC(=O)c4ccc(C5(F)CCNCC5)cc4)c3)c(OC)cc21 [Example 7, 5-((2-(4-(4-Fluoropiperidin-4-yl)benzamide)pyridin-4-yl)oxy)-6-methoxy-N-methyl-1H-indole-1-carboxamide] | 205 | 9.6 |  |
| CNC(=O)n1ccc2cc(Oc3ccnc(NC(=O)c4ccc(N5CCC(N6CCCC6)CC5)cc4)c3)c(OC)cc21 [Example 8, 6-Methoxy-N-methyl-5-((2-(4-(4-(pyrrolidin-1-yl)piperidin-1-yl)benzamide)pyridin-4-yl)oxy)-1H-indole-1-carboxamide] | 140 | 15.4 |  |
| CNC(=O)n1ccc2cc(Oc3ccnc(NC(=O)c4ccc(CN5C[C@H](OC)[C@@H](O)C5)cc4)c3)c(OC)cc21 [Example 10, 5-((2-(4-(((3S,4S)-3-Hydroxy-4-methoxypyrrolidin-1-yl)methyl)benzamide)pyridin-4-yl)oxy)-6-methoxy-N-methyl-1,4-indole-1-carboxamide] | 350 | 28.7 |  |
| CCN1CCN(CCc2ccc(C(=O)Nc3cc(Oc4cc5ccn(C(=O)NC)c5cc4OC)ccn3)cc2)CC1 [Example 11, 5-((2-(4-(2-(4-Ethylpiperazin-1-yl)ethyl)benzamide)pyridin-4-yl)oxy)-6-methoxy-N-methyl-1H-indole-1-carboxamide] | 132 | 14.5 |  |
| CNC(=O)n1ccc2cc(Oc3ccnc(NC(=O)c4ccc(OCCN5CCC(O)CC5)cc4)c3)c(OC)cc21 [Example 12, 5-((2-(4-(2-(4-Hydroxypiperidin-1-yl)ethoxy)benzamide)pyridin-4-yl)oxy)-6-methoxy-N-methyl-1H-indole-1-carboxamide] | 141 | 13 |  |
| CCN1CCC(n2cc(C(=O)Nc3cc(Oc4cc5ccn(C(=O)NC)c5cc4OC)ccn3)cn2)CC1 [Example 13, 5-((2-(1-(1-Ethylpiperidin-4-yl)-1H-pyrazole-4-carboxamide)pyridin-4-yl)oxy)-6-methoxy-N-methyl-1H-indole-1-carboxamide] | 396 | 10.9 |  |
| CNC(=O)n1ccc2cc(Oc3ccnc(NC(=O)c4ccc(OC5CCN(CCO)CC5)cc4)c3)c(OC)cc21 [Example 14, 5-((2-(4-((1-(2-Hydroxyethyl)piperidin-4-yl)oxy)benzamide)pyridin-4-yl)oxy)-6-methoxy-N-methyl-1H-indole-1-carboxamide] | 169 | 9.5 |  |
| CCOc1cc2c(ccn2C(=O)NC)cc1Oc1ccnc(NC(=O)c2ccc(C3CCNCC3)cc2)c1 [Example 15, 6-Ethoxy-N-methyl-5-((2-(4-(piperidin-4-yl)benzamide)pyridin-4-yl)oxy)-1H-indole-1-carboxamide] |  |  | 9.7 |
| CNC(=O)n1ccc2cc(Oc3ccnc(NC(=O)c4ccc(C5CCNCC5)cc4)c3)c(OC(C)C)cc21 [Example 17, 6-Isopropoxy-N-methyl-5-((2-(4-(piperidin-4-yl)benzamide)pyridin-4-yl)oxy)-1H-indole-1-carboxamide] |  |  | 17.7 |
| CNC(=O)n1ccc2cc(Oc3ccnc(NC(=O)c4ccc(C5CCN(C[C@@H](C)O)CC5)cc4)c3)c(OC(C)C)cc21 [Example 18, (R)-5-((2-(4-(1-(2-Hydroxypropyl)piperidin-4-yl)benzamide)pyridin-4-yl)oxy)-6-isopropoxy-N-methyl-1H-indole-1-carboxamide] | 180 | 13.9 |  |
| CNC(=O)n1ccc2cc(Oc3ccnc(NC(=O)c4ccc(CN5CCC(O)CC5)cc4)c3)c(OC(F)F)cc21 [Example 19, 6-(Difluoromethoxy)-5-((2-(4-((4-hydroxypiperidin-1-yl)methyl)benzamide)pyridin-4-yl)oxy)-N-methyl-1H-indole-1-carboxamide] | 151 | 14.1 |  |
| CNC(=O)n1ccc2cc(Oc3ccnc(NC(=O)c4ccc(C5CCNCC5)cc4)c3)c(OCCOC)cc21 [Example 20, 6-(2-Methoxyethoxy)-N-methyl-5-((2-(4-(piperidin-4-yl)benzamide)pyridin-4-yl)oxy)-1H-indole-1-carboxamide] |  |  | 7.5 |
| CNC(=O)n1ccc2cc(Oc3ccnc(NC(=O)c4ccc(C5CCN(C(C)C)CC5)cc4)c3)c(OCCOC)cc21 [Example 23, 5-((2-(4-(1-Isopropylpiperidin-4-yl)benzamide)pyridin-4-yl)oxy)-6-(2-methoxyethoxy)-N-methyl-1H-indole-1-carboxamide] | 300 | 6.5 |  |
| CCOCCOc1cc2c(ccn2C(=O)NC)cc1Oc1ccnc(NC(=O)c2ccc(C3CCNCC3)cc2)c1 [Example 24, 6-(2-Ethoxyethoxy)-N-methyl-5-((2-(4-(piperidin-4-yl)benzamide)pyridin-4-yl)oxy)-1H-indole-1-carboxamide] |  |  | 6.2 |
| CCOCCOc1cc2c(ccn2C(=O)NC)cc1Oc1ccnc(NC(=O)c2ccc(C3CN(CCO)C3)cc2)c1 [Example 27, 6-(2-Ethoxyethoxy)-5-((2-(4-(1-(2-hydroxyethyl)azetidin-3-yl)benzamide)pyridin-4-yl)oxy)-N-methyl-1H-indole-1-carboxamide] | 218 | 6.2 |  |
| CCOCCOc1cc2c(ccn2C(=O)NC)cc1Oc1ccnc(NC(=O)c2ccc(CN3C[C@@H](C)N[C@@H](C)C3)cc2)c1 [Example 30, 5-((2-(4-(((3S,5R)-3,5-Dimethylpiperazin-1-yl)methyl)benzamide)pyridin-4-yl)oxy)-6-(2-ethoxyethoxy)-N-methyl-1H-indole-1-carboxamide] | 566 |  |  |
| CCOc1cc2c(ccn2C(=O)NC)cc1Oc1ccnc(NC(=O)c2ccc(C3CCN(CC(C)(C)O)CC3)cc2)c1 [Example 58] |  |  | 10 |
| CNC(=O)n1ccc2cc(Oc3ccnc(NC(=O)c4ccc(C5CCN(C)CC5)cc4)c3)c(OC(C)C)cc21 [Example 69] |  |  | 17.5 |

| SMILES | IC50 [1] [nM] | IC50 [2, 3] [nM] | IC50 ([2]; read-out: SNU-16 (IC50 (nM))) [nM] |
| --- | --- | --- | --- |
| CNC(=O)n1ccc2cc(Oc3ccnc(NC(=O)c4ccc(C5CN(CC(C)(C)O)C5)cc4)c3)c(OCCOC)cc21 [Example 79] |  |  | 4.6 |
| CNC(=O)n1ccc2cc(Oc3ccnc(NC(=O)c4ccc(CN5CCC[C@H]5CO)s4)c3)c(OCCOC)cc21 [Example 83] | 310 |  |  |
| CNC(=O)n1ccc2cc(Oc3ccnc(NC(=O)c4ccc(C5CN(C)C5)cc4)c3)c(OCCOC)cc21 [Example 87] |  |  | 3.9 |
| CNC(=O)n1ccc2cc(Oc3ccnc(NC(=O)c4ccc(C5CN(C(C)C)C5)cc4)c3)c(OCCOC)cc21 [Example 88] |  |  | 6.9 |
| CCOCCOc1cc2c(ccn2C(=O)NC)cc1Oc1ccnc(NC(=O)c2ccc(C3CN(CC(C)(C)O)C3)cc2)c1 [Example 95] |  |  | 5.1 |
| CCOCCOc1cc2c(ccn2C(=O)NC)cc1Oc1ccnc(NC(=O)c2ccc(C3CN(C[C@@H](C)O)C3)cc2)c1 [Example 96] |  |  | 6.4 |
| CCOCCOc1cc2c(ccn2C(=O)NC)cc1Oc1ccnc(NC(=O)c2ccc(C3CN(C[C@H](C)O)C3)cc2)c1 [Example 97] |  |  | 3.6 |
| CCOCCOc1cc2c(ccn2C(=O)NC)cc1Oc1ccnc(NC(=O)c2ccc(CN3CC[C@@H](O)C3)cc2)c1 [Example 106] | 726 |  |  |
| CCOCCOc1cc2c(ccn2C(=O)NC)cc1Oc1ccnc(NC(=O)c2ccc(C3CCN(CC(C)(C)O)CC3)cc2)c1 [Example 109] |  |  | 6.7 |
| CCOCCOc1cc2c(ccn2C(=O)NC)cc1Oc1ccnc(NC(=O)c2ccc(C3CCN(C(C)C)CC3)cc2)c1 [Example 110] |  |  | 5.8 |
| CCOCCOc1cc2c(ccn2C(=O)NC)cc1Oc1ccnc(NC(=O)c2ccc(C3CCN(CC)CC3)cc2)c1 [Example 113] |  |  | 5.7 |
| CCOCCOc1cc2c(ccn2C(=O)NC)cc1Oc1ccnc(NC(=O)c2ccc(C3CCN(C)CC3)cc2)c1 [Example 114] |  |  | 4.7 |
| CNC(=O)n1ccc2cc(Oc3ccnc(NC(=O)c4ccc(CN5CCC[C@@H]5CO)cc4)c3)c(OCCCOC)cc21 [Example 116] | 520 |  |  |
| CNC(=O)n1ccc2cc(Oc3ccnc(NC(=O)c4ccc(CN5CC[C@H](O)C5)cc4)c3)c(OCCCOC)cc21 [Example 120] | 457 |  |  |
| CNC(=O)n1ccc2cc(Oc3ccnc(NC(=O)c4ccc(C5CN(C(C)C)C5)cc4)c3)c(OCCCOC)cc21 [Example 123] |  |  | 8.5 |
| CCN1CC(c2ccc(C(=O)Nc3cc(Oc4cc5ccn(C(=O)NC)c5cc4OCCCOC)ccn3)cc2)C1 [Example 124] |  |  | 8.9 |
| CNC(=O)n1ccc2cc(Oc3ccnc(NC(=O)c4ccc(C5CCN(C(C)C)CC5)cc4)c3)c(OCCCOC)cc21 [Example 127] | 226 |  |  |
| CNC(=O)n1ccc2cc(Oc3ccnc(NC(=O)c4ccc(C5CCN(CCO)CC5)cc4)c3)c(OCCCOC)cc21 [Example 128] |  |  | 6.4 |
| CCN1CCC(c2ccc(C(=O)Nc3cc(Oc4cc5ccn(C(=O)NC)c5cc4OCCCOC)ccn3)cc2)CC1 [Example 129] |  |  | 7.7 |
